Read-outs that look alike come from different tables or passages of the source.
Columns and labels:
Format in all cases: cell-based, Plasmodium falciparum
[1] = test system: P. falciparum Dd2 (PfLuc) line expressing firefly luciferase, asexual blood stage; assay: microbe, parasite or virus in culture; settings: Plasmodium falciparum
[2] = test system: P. falciparum (NF54) stage V gametocytes; assay: Stage V gametocyte viability assay (MitoTracker Red CMXRos high content imaging); settings: for inhibition at 2 µM: read-out: Stg V Gam primary screen: Inhibition % (2uM) (n=2)
P. falciparum Dd2 = assay: SYBR green I asexual blood stage proliferation assay (96 h); settings: Plasmodium falciparum, DD2, 11-pt dose response, 96hr
[3] = DD2, read-out: CDD P. falciparum Luciferase ABS 11-pt Reconfirmation Dose Response (48hr): IC50 (μM), 11-pt dose response, 48hr
[4] = DD2, 8-pt dose response, 96hr, read-out: CDD P. falciparum Luciferase ABS 8-pt Reconfirmation Dose Response (96hr): IC50
[5] = DD2, 8-pt dose response, 96hr, read-out: CDD P. falciparum Luciferase ABS 8-pt Reconfirmation Dose Response (96hr): Maximum inhibition (%)
[6] = DD2, 11-pt dose response, 48hr, read-out: CDD P. falciparum Luciferase ABS 11-pt Reconfirmation Dose Response (48hr): Maximum inhibition (%)
[7] = DD2, 11-pt dose response, 96hr, read-out: CDD P. falciparum Luciferase ABS 11-pt Reconfirmation Dose Response (96hr): IC50
[8] = DD2, 11-pt dose response, 96hr, read-out: CDD P. falciparum Luciferase ABS 11-pt Reconfirmation Dose Response (96hr): Maximum inhibition (%)
[9] = Plasmodium falciparum, NF54, 72 h, read-out: Stg V Gam dose response IC50 (µM) (n=3), 10-point dose response, n=3, 72 h
[10] = Plasmodium falciparum, NF54, 72 h
[11] = Sybr Green I, read-out: CDD P. falciparum Sybr Green I ABS 11-pt Reconfirmation Dose Response (96hr): IC50
[12] = Sybr Green I, read-out: CDD P. falciparum Sybr Green I ABS 11-pt Reconfirmation Dose Response (96hr): Maximum inhibition (%)
[13] = DD2, read-out: P. falciparum Luciferase ABS 11-pt Reconfirmation Dose Response (48hr): IC50, 11-pt dose response, 48hr
[14] = DD2, 8-pt dose response, 96hr, read-out: P. falciparum Luciferase ABS 8-pt Reconfirmation Dose Response (96hr): IC50
[15] = DD2, 11-pt dose response, 48hr, read-out: P. falciparum Luciferase ABS 11-pt Reconfirmation Dose Response (48hr): Maximum inhibition (%)
[16] = DD2, 11-pt dose response, 96hr, read-out: P. falciparum Luciferase ABS 11-pt Reconfirmation Dose Response (96hr): IC50
[17] = DD2, 11-pt dose response, 96hr, read-out: P. falciparum Luciferase ABS 11-pt Reconfirmation Dose Response (96hr): Maximum inhibition (%)
[18] = Plasmodium falciparum, NF54, 72 h, read-out: GAM V IC50, stage V gametocytes, 72 h
[19] = read-out: P. falciparum Sybr Green I ABS 11-pt Reconfirmation Dose Response (96hr): IC50
[20] = read-out: P. falciparum Sybr Green I ABS 11-pt Reconfirmation Dose Response (96hr): Maximum inhibition (%)

| Compound | IC50 [1, 3] [µM] | IC50 [1, 4] [µM] | Emax [1, 5] [%] | Emax [1, 6] [%] | IC50 [1, 7] [µM] | Emax [1, 8] [%] | IC50 [2, 9] [µM] | inhibition at 2 µM [2, 10] [%] | IC50 (P. falciparum Dd2; [11]) [µM] | Emax (P. falciparum Dd2; [12]) [%] | IC50 [2, 18] [µM] | other results |
| --- | --- | --- | --- | --- | --- | --- | --- | --- | --- | --- | --- | --- |
| COc1ccc(-c2c(C)nn3c(=N)c(C#N)n[nH]c23)cc1OC [DDD01035187, COC1=CC=C(C=C1OC)C1=C2N=NC(C#N)=C(N)N2N=C1C] | 1.18 | 0.57 | 93 | 95.8 | 0.841 | 98.5 | 8.2 | 61.6 | 5.98 | 90.8 | – | – |
| Cc1nn(C)cc1C1=NS(=O)(=O)N(C)C(C(=O)Nc2ccc(Br)cc2)=C1 [DDD01058697, CN1C=C(C(C)=N1)C1=NS(=O)(=O)N(C)C(=C1)C(=O)NC1=CC=C(Br)C=C1] | 0.55 | 0.2 | 95.2 | 99.4 | 0.281 | 101 | – | – | 0.321 | 99.9 | – | IC50 ([2]; Plasmodium falciparum, NF54, read-out: Stg V Gam dose response IC50 (µM) (n=3), 10-point dose response, n=3, 72 h): 2.78 µM; inhibition at 2 µM ([2]; Plasmodium falciparum, NF54, Table S6, 2uM, n=2, 72 h): 53.2% |
| COc1ccc(C)cc1CN1CCC(c2cc3ncccc3cn2)CC1 [DDD01058767, COC1=CC=C(C)C=C1CN1CCC(CC1)C1=NC=C2C=CC=NC2=C1] | 0.0507 | 0.25 | 96.3 | 98.5 | 0.0439 | 100 | 2.51 | 85.5 | 0.136 | 101 | – | – |
| CC(C)(C)c1cn2c(n1)C(CNCc1ccccn1)CCC2 (stereo not drawn) [DDD01062588, CC(C)(C)C1=CN2CCCC(CNCC3=CC=CC=N3)C2=N1] | – | – | – | – | – | – | 0.069 | 86.8 | – | – | 0.07 | IC50 [1, 13]: 2.9 µM; IC50 [1, 14]: 1.44 µM; Emax ([1]; DD2, 8-pt dose response, 96hr, read-out: P. falciparum Luciferase ABS 8-pt Reconfirmation Dose Response (96hr): Maximum inhibition (%)): 91.5%; Emax [1, 15]: 90.4%; IC50 [1, 16]: 1.41 µM; Emax [1, 17]: 98.6%; IC50 (P. falciparum Dd2; [19]): 1.72 µM; Emax (P. falciparum Dd2; [20]): 87.3% |
| Fc1cccc(C(NCc2ncc[nH]2)c2ccccn2)c1 (stereo not drawn) [DDD01064153, FC1=CC=CC(=C1)C(NCC1=NC=CN1)C1=CC=CC=N1] | 5.61 | 0.45 | – | 86.1 | 0.644 | 97.4 | 1.55 | 63.2 | 5.58 | 82.6 | 1.55 | – |
| Clc1cccc(C(NCc2ncc[nH]2)c2ccccn2)c1 (stereo not drawn) [DDD01064155, ClC1=CC=CC(=C1)C(NCC1=NC=CN1)C1=CC=CC=N1] | 1.99 | 0.27 | 94.2 | 94.1 | 0.408 | 98.7 | 2.06 | 59.1 | 3.75 | 88.1 | 2.06 | – |
| CNc1cc(C)nc(NC2CCCN(C3Cc4ccccc4C3)C2)n1 (stereo not drawn) [DDD01243506, CNC1=CC(C)=NC(NC2CCCN(C2)C2CC3=CC=CC=C3C2)=N1] | – | – | – | – | – | – | 2.91 | 62.9 | – | – | – | IC50 [1, 13]: 1.16 µM; IC50 [1, 14]: 1.33 µM; Emax [1, 15]: 94.3%; IC50 [1, 16]: 0.707 µM; Emax [1, 17]: 100%; IC50 (P. falciparum Dd2; [19]): 0.957 µM; Emax (P. falciparum Dd2; [20]): 96.1% |
| CN(Cc1ccsc1)c1nc(-c2ccccn2)nc2c1CCNCC2 [DDD01243664, CN(CC1=CSC=C1)C1=NC(=NC2=C1CCNCC2)C1=CC=CC=N1] | 0.752 | 0.52 | 95.1 | 89.8 | 0.299 | 98.7 | 0.732 | 95.1 | 0.872 | 78.7 | 0.73 | IC50 ([1]; DD2, asexual blood stage, assay format not given, read-out: ABS IC50): < 1 µM; IC50 ([2]; read-out: GAM V IC50, stage V gametocytes, 72 h): < 1 µM |

Reference: publication PMC7155171, “Probing the Open Global Health Chemical Diversity Library for Multistage-Active Starting Points for Next-Generation Antimalarials” (ACS Infectious Diseases, 2020)
